In BigSolDB 2.1:

CCOC(=O)c1ccc(N)cc1
solubility (mole fraction)
Conditions | in cyclohexane | in isopropyl myristate | in n-octanol | in water
298.15 K | 0.00107 | 0.0637 | 0.0628 | 0.000105
303.15 K | 0.00134 | 0.0764 | 0.0753 | 0.000126
308.15 K | 0.00185 | 0.102 | 0.0916 | 0.000159
313.15 K | 0.00225 | 0.121 | 0.113 | 0.000186
